Reference: US10758620B2, “Potentiated antimicrobial agents” (SEPTEOS, priority 2014, dated 2020)
Where two headings read alike, the source gives them in different places.

Assays:
Type in all cases: cell-based
[1] = test system: Strain 09003, methicillin resistant S. aureus (MRSA); assay: Resistance test (resistant mutants), Strain 09003; details: MRSA, text after Table 15
Method: After 48 h incubation, the presence or absence of colonies likely to be resistant mutants is observed.
ED control or DMSO=only distilled water or DMSO is added
Ciprofloxacine DMSO: addition of Ciprofloxacine in DMSO

[2] = test system: MSSA 8237; assay: Etest, staphylococci MSSA 8237; details: for MIC: Staphylococcus aureus, MSSA
Text: (§1) The corresponding tests are made based on the usual MIC test: the Etest® (Biomerieux) strip is deposited onto the surface of a seeded agar medium in which the booster has been incorporated. This test enables solvent effect risks, that is a possible interaction with the solvent used in vitro, to be minimised.
(§2) The control corresponds to the test made without cineol. A control is made in each solvent tested: distilled water, Tween/water and DMSO.
(§3) ED control=antibiotic alone in distilled water
(§4) DMSO control=antibiotic alone in DMSO
(§5) TE control=antibiotic alone in Tween® 80

[3] = test system: MRSA 10178; assay: Etest, staphylococci MRSA 10178; details: MRSA 10178
Text: as §1, §2, §3, §4, §5

[4] = test system: Escherichia coli; assay: MIC measurement in agar medium (dilution test), Coli; details: potentiator alone
Text: (§6) Inhibitory minimum concentration measurement tests are made in a solid agar medium according to international standards in force (CLSI M7-A9 Jan 12 standards): dispersion of the compounds to be tested in a Mueller Hinton gelose. An adaptation relating to the hydrophobicity of compounds and compositions is however necessary to disperse them in the medium: dilution of the compounds in a solvent. The compounds and compositions incorporated in the agar medium can be diluted beforehand in one or more solvents (Tween® 80 diluted with water, Tween® 80 diluted with […], DMSO diluted with water). The strains are deposited onto the agar surface with a steers apparatus. In the examples, different dissolution methods for products are tested in parallel to circumvent the problems of water/solvent distribution coefficient of the molecules (antimicrobial and potentiator) whereas the bacteria grow only in the aqueous phase. The technical requirement will not intervene in in vivo tests. The same dilution methods can be implemented in a liquid medium (microplates and tubes). The same methodology is implemented with fungi. […] MIC measurement: the minimum inhibitory concentration measurement tests are made in an agar solid medium according to international standards in force (CLSI standards), according to the previously defined protocol. […] The booster contribution as compared with the MIC of the antibiotic alone is expressed in a (MIC ATB)/(MIC ATB+booster) ratio. Thereby, gains are defined: […]

[5] = test system: E. Coli Strain 8150; assay: Etest, E. Coli Strain 8150; details: for MIC: Escherichia coli, read-out: MIC of Pipera tazo, Strain 8150; for MIC of Meropenem / MIC of Tigecycline: Strain 8150
Text: as §1, §2, §3, §4, §5

[6] = test system: Staphylococcus; assay: MIC measurement in agar medium (dilution test), Staph; details: potentiator alone
Text: as §6

[7] = test system: Pseudomonas Strain 08132; assay: Etest, Pseudomonas Strain 08132
Text: as §1, §2, §3, §4, §5

[8] = test system: Pseudomonas Strain 08131; assay: Etest, Pseudomonas Strain 08131; details: for MIC: Pseudomonas, STRAIN08131, Strain 08131, read-out: MIC of Pipera tazo; for MIC of Meropenem: Strain 08131
Text: as §1, §2, §3, §4, §5

[9] = test system: methicillin resistant S. aureus (MRSA) strains 09003, 10168; assay: MIC of the potentiator used alone on the strains of Examples 3 and 4; details: Staphylococcus aureus, on these strains
[10] = MSSA 8237, booster 1 mg/L in agar, DMSO
[11] = MSSA 8237, booster 1 mg/L in agar, Tween/water
[12] = MSSA 8237, booster 4 mg/L in agar, DMSO
[13] = MSSA 8237, booster 4 mg/L in agar, Tween/water
[14] = MSSA 8237, booster 16 mg/L in agar, DMSO
[15] = MSSA 8237, booster 16 mg/L in agar, Tween/water
[16] = booster 1 mg/L in agar, Tween/water
[17] = booster 4 mg/L in agar, Tween/water
[18] = booster 16 mg/L in agar, Tween/water

O=C(OCc1ccccc1)c1ccccc1 [BB, benzyl benzoate]
occurrence of mutants on addition of the compound to ciprofloxacine [1]: does not cause the occurrence of mutants any longer | MIC of Cefoxitine [2, 10]: 2 µg/mL | MIC of Meropenem [2, 10]: 0.25 µg/mL | MIC of Penicillin G [2, 10]: 0.38 µg/mL | MIC of Cefoxitine [2, 11]: 3 µg/mL | MIC of Meropenem [2, 11]: 0.19 µg/mL | MIC of Penicillin G [2, 11]: 0.25 µg/mL | MIC of Cefoxitine [2, 12]: 3 µg/mL | MIC of Meropenem [2, 12]: 0.19 µg/mL | MIC of Penicillin G [2, 12]: 0.25 µg/mL | MIC of Cefoxitine [2, 13]: 3 µg/mL | MIC of Meropenem [2, 13]: 0.125 µg/mL | MIC of Penicillin G [2, 13]: 0.19 µg/mL | MIC of Cefoxitine [2, 14]: 3 µg/mL | MIC of Meropenem [2, 14]: 0.19 µg/mL | MIC of Penicillin G [2, 14]: 0.19 µg/mL | MIC of Cefoxitine [2, 15]: 3 µg/mL | MIC of Meropenem [2, 15]: 0.064 µg/mL | MIC of Penicillin G [2, 15]: 0.125 µg/mL | MIC ([2]; MSSA 8237, booster 1 mg/L in agar, DMSO, read-out: MIC of Clindamycine): 0.047 µg/mL | MIC ([2]; MSSA 8237, booster 1 mg/L in agar, Tween/water, read-out: MIC of Clindamycine): 0.047 µg/mL | MIC ([2]; MSSA 8237, booster 4 mg/L in agar, DMSO, read-out: MIC of Clindamycine): 0.047 µg/mL | MIC ([2]; MSSA 8237, booster 4 mg/L in agar, Tween/water, read-out: MIC of Clindamycine): 0.047 µg/mL | MIC ([2]; MSSA 8237, booster 16 mg/L in agar, DMSO, read-out: MIC of Clindamycine): 0.047 µg/mL | MIC ([2]; MSSA 8237, booster 16 mg/L in agar, Tween/water, read-out: MIC of Clindamycine): 0.094 µg/mL | MIC ([2]; read-out: MIC of Pipera tazo, MSSA 8237, booster 1 mg/L in agar, DMSO): 1 µg/mL | MIC ([2]; read-out: MIC of Pipera tazo, MSSA 8237, booster 1 mg/L in agar, Tween/water): 1 µg/mL | MIC ([2]; read-out: MIC of Pipera tazo, MSSA 8237, booster 4 mg/L in agar, DMSO): 1 µg/mL | MIC ([2]; read-out: MIC of Pipera tazo, MSSA 8237, booster 4 mg/L in agar, Tween/water): 1 µg/mL | MIC ([2]; read-out: MIC of Pipera tazo, MSSA 8237, booster 16 mg/L in agar, DMSO): 0.75 µg/mL | MIC ([2]; read-out: MIC of Pipera tazo, MSSA 8237, booster 16 mg/L in agar, Tween/water): 0.75 µg/mL | MIC of Cefoxitine ([3]; booster 1 mg/L in agar, DMSO): 3 µg/mL | MIC of Tigecycline ([3]; booster 1 mg/L in agar, DMSO): 0.047 µg/mL | MIC of Cefoxitine [3, 16]: 3 µg/mL | MIC of Tigecycline [3, 16]: 0.094 µg/mL | MIC of Cefoxitine ([3]; booster 4 mg/L in agar, DMSO): 2 µg/mL | MIC of Tigecycline ([3]; booster 4 mg/L in agar, DMSO): 0.125 µg/mL | MIC of Cefoxitine [3, 17]: 2 µg/mL | MIC of Tigecycline [3, 17]: 0.25 µg/mL | MIC of Cefoxitine ([3]; booster 16 mg/L in agar, DMSO): 1 µg/mL | MIC of Tigecycline ([3]; booster 16 mg/L in agar, DMSO): 0.032 µg/mL | MIC of Cefoxitine [3, 18]: 1.5 µg/mL | MIC of Tigecycline [3, 18]: 0.047 µg/mL | MIC 50 ([4]; solvent DMSO): >1% | MIC 90 ([4]; solvent DMSO): >1% | MIC 50 ([4]; solvent Tween/prop glyc): >1% | MIC 90 ([4]; solvent Tween/prop glyc): >1% | MIC 50 ([4]; solvent Tween/water): >1% | MIC 90 ([4]; solvent Tween/water): >1% | MIC 50 ([4]; solvent water/water): >1% | MIC 90 ([4]; solvent water/water): >1% | MIC ([5]; booster 1 mg/L in agar, DMSO): 0.75 µg/mL | MIC [5, 16]: 1.5 µg/mL | MIC ([5]; booster 4 mg/L in agar, DMSO): 1 µg/mL | MIC [5, 17]: 1 µg/mL | MIC ([5]; booster 16 mg/L in agar, DMSO): 1 µg/mL | MIC [5, 18]: 1.5 µg/mL | MIC of Meropenem ([5]; booster 1 mg/L in agar, DMSO): 0.047 µg/mL | MIC of Tigecycline ([5]; booster 1 mg/L in agar, DMSO): 0.125 µg/mL | MIC of Meropenem [5, 16]: 0.094 µg/mL | MIC of Tigecycline [5, 16]: 0.125 µg/mL | MIC of Meropenem ([5]; booster 4 mg/L in agar, DMSO): 0.064 µg/mL | MIC of Tigecycline ([5]; booster 4 mg/L in agar, DMSO): 0.094 µg/mL | MIC of Meropenem [5, 17]: 0.064 µg/mL | MIC of Tigecycline [5, 17]: 0.19 µg/mL | MIC of Meropenem ([5]; booster 16 mg/L in agar, DMSO): 0.094 µg/mL | MIC of Tigecycline ([5]; booster 16 mg/L in agar, DMSO): 0.125 µg/mL | MIC of Meropenem [5, 18]: 0.094 µg/mL | MIC of Tigecycline [5, 18]: 0.094 µg/mL | MIC 50 ([6]; solvent DMSO): 1.00% | MIC 90 ([6]; solvent DMSO): 1.00% | MIC 50 ([6]; solvent Tween/prop glyc): >1% | MIC 90 ([6]; solvent Tween/prop glyc): >1% | MIC 50 ([6]; solvent Tween/water): >1% | MIC 90 ([6]; solvent Tween/water): >1% | MIC 50 ([6]; solvent water/water): >1% | MIC 90 ([6]; solvent water/water): >1% | MIC of Meropenem ([7]; booster 4 mg/L in agar, DMSO): 8 µg/mL | MIC of Meropenem [7, 17]: 8 µg/mL | MIC of Meropenem ([7]; booster 16 mg/L in agar, DMSO): 2 µg/mL | MIC of Meropenem [7, 18]: 12 µg/mL | MIC ([8]; booster 1 mg/L in agar, DMSO): 6 µg/mL | MIC [8, 16]: 8 µg/mL | MIC ([8]; booster 4 mg/L in agar, DMSO): 8 µg/mL | MIC [8, 17]: 6 µg/mL | MIC ([8]; booster 16 mg/L in agar, DMSO): 6 µg/mL | MIC [8, 18]: 4 µg/mL | MIC of Meropenem ([8]; booster 1 mg/L in agar, DMSO): 1.5 µg/mL | MIC of Meropenem [8, 16]: 3 µg/mL | MIC of Meropenem ([8]; booster 4 mg/L in agar, DMSO): 2 µg/mL | MIC of Meropenem [8, 17]: 3 µg/mL | MIC of Meropenem ([8]; booster 16 mg/L in agar, DMSO): 2 µg/mL | MIC of Meropenem [8, 18]: 1 µg/mL | MIC [9]: > 10000 µg/mL
